Values of other authors, collected in patent US20150182553A1, “USE OF POLYMER D-LACTIC ACID (PDLA) TO TREAT MALARIA” (priority 2013, published 2015).

How the values were obtained:
[1] = metabolite of PDLA
[2] = test system: mitochondrial respiration of L-lactate; conditions: brain and heart

SMILES: C[C@@H](O)C(=O)O [D-lactic acid]
- average plasma concentration that may be related to reversible symptoms of altered mental status, dysarthria, and ataxia [1]: 7.98 mM
- effect on mitochondrial respiration of L-lactate [2]: block mitochondrial respiration of L-lactate in the brain and heart
